This is an account of results in BindingDB's records for doi:10.1111/j.1476-5381.1995.tb15922.x (Syntex Discovery Research, 1995).

Some results are limits rather than exact numbers.

Targets include D(2) dopamine receptor (Homo sapiens, UniProt P14416); D(1A) dopamine receptor (Homo sapiens, UniProt P21728); Mu-type opioid receptor (Rattus norvegicus, UniProt P33535).
Assay [1] concerns the target T1, Alpha-1A adrenergic receptor (Homo sapiens, UniProt P35348).
T1 sequence (P35348 whole entry): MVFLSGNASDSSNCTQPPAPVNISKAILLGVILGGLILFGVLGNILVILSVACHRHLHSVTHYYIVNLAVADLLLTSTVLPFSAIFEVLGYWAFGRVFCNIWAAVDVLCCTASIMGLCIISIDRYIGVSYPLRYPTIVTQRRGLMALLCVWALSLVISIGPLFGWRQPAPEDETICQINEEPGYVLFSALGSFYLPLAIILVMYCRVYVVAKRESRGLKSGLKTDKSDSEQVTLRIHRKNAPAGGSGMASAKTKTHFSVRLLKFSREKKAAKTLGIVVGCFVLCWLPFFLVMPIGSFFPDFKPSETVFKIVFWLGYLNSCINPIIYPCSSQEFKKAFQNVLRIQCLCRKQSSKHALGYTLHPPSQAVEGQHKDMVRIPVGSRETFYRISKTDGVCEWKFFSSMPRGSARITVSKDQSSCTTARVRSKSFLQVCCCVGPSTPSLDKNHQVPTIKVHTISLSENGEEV

In assay [2] the target is T2, Type-1 angiotensin II receptor (Xenopus tropicalis, UniProt B3DLC0).
T2 sequence (B3DLC0 whole entry): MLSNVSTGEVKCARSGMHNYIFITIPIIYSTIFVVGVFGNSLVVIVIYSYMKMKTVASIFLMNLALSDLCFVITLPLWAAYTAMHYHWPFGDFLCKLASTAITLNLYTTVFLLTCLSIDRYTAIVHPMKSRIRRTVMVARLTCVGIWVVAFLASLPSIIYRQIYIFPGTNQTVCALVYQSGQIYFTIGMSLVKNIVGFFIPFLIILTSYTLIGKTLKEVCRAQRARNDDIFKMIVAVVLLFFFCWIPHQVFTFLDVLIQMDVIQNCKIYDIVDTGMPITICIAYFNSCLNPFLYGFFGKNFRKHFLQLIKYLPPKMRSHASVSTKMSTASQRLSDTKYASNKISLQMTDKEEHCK

For assay [3], the target named is Glutamate receptor ionotropic, NMDA 1 (Rattus norvegicus, UniProt P35439).
The target of assay [4] is T3, 5-hydroxytryptamine receptor 3A (Homo sapiens, UniProt P46098).
T3 sequence (P46098 whole entry): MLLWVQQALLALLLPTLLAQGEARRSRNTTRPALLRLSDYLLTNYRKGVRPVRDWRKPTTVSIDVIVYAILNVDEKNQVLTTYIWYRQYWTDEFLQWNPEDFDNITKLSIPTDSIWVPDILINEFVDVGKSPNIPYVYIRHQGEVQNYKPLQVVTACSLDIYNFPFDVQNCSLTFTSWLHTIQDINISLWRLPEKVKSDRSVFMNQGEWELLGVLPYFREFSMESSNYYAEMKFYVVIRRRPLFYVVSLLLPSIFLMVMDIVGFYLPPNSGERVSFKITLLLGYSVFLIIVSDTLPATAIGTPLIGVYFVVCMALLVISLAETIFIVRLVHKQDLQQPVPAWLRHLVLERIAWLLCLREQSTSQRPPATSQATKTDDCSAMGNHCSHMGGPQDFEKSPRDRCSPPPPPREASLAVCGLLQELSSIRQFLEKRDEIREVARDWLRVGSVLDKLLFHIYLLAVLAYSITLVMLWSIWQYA

Assay [5] has as its target T4, 5-hydroxytryptamine receptor 2C (Homo sapiens, UniProt P28335).
T4 sequence (P28335 whole entry): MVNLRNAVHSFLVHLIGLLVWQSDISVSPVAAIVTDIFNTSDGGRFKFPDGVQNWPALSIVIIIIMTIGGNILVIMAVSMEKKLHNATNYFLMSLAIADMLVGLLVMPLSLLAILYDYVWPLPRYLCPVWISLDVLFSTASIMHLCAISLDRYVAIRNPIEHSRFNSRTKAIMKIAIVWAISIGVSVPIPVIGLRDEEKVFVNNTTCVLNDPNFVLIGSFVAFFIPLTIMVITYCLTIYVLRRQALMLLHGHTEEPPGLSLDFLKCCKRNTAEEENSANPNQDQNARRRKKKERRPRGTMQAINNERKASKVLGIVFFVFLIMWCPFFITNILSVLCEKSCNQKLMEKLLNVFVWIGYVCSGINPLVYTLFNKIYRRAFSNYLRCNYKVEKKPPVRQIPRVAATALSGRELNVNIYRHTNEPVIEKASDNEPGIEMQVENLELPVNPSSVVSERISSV

Assay [6] concerns the target T5, Muscarinic acetylcholine receptor M1 (Homo sapiens, UniProt P11229).
T5 sequence (P11229 whole entry): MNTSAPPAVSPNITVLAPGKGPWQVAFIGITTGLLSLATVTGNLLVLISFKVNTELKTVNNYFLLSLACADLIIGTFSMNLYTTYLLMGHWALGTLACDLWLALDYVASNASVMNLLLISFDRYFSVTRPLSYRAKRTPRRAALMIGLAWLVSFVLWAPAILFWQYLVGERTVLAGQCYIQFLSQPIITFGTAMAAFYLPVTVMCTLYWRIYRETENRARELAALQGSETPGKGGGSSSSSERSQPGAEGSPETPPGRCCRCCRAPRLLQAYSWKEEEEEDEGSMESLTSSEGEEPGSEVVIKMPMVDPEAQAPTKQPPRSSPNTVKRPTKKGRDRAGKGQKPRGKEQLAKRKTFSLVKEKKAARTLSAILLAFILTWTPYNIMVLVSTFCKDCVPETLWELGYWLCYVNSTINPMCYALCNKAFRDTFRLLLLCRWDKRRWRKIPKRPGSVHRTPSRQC

Assay [7] deals with T6, Muscarinic acetylcholine receptor M2 (Homo sapiens, UniProt P08172).
T6 sequence (P08172 whole entry): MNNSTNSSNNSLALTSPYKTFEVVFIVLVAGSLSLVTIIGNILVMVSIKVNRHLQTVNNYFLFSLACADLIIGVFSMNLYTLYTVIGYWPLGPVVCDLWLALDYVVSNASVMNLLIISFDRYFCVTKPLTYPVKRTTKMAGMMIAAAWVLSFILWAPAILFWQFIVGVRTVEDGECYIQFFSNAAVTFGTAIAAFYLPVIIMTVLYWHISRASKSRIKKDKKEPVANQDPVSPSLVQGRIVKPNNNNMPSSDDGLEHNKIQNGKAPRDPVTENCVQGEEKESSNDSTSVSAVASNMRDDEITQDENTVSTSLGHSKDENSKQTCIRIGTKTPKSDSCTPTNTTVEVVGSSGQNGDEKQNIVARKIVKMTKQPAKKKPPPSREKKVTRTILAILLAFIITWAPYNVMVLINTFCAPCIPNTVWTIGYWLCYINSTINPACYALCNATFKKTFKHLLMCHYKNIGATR

The target of another assay is T7, B1 bradykinin receptor (Homo sapiens, UniProt P46663).
T7 sequence (P46663 whole entry): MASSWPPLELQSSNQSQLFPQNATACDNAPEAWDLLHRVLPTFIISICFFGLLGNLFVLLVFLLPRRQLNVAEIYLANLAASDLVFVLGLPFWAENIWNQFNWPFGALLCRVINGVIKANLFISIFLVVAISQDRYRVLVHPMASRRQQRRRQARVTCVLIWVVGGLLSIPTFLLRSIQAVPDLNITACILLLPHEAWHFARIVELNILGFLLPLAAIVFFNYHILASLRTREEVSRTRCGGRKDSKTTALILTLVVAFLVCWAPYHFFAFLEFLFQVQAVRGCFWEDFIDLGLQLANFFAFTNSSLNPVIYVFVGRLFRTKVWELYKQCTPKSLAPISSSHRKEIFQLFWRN

The target in assay [8] is 5-hydroxytryptamine receptor 4 (Cavia porcellus, UniProt O70528).
Sequence of 5-hydroxytryptamine receptor 4 (O70528 whole entry): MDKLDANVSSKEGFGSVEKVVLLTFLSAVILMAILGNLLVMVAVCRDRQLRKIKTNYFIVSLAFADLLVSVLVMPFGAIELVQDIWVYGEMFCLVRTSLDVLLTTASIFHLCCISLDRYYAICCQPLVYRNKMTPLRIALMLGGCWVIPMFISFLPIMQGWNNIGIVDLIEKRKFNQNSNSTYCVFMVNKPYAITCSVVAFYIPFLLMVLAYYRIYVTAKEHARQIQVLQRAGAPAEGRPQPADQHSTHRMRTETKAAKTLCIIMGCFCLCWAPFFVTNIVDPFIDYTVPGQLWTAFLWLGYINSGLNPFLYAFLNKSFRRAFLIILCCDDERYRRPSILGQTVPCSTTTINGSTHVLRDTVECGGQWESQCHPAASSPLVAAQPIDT

Sequence of D(2) dopamine receptor (P14416 whole entry): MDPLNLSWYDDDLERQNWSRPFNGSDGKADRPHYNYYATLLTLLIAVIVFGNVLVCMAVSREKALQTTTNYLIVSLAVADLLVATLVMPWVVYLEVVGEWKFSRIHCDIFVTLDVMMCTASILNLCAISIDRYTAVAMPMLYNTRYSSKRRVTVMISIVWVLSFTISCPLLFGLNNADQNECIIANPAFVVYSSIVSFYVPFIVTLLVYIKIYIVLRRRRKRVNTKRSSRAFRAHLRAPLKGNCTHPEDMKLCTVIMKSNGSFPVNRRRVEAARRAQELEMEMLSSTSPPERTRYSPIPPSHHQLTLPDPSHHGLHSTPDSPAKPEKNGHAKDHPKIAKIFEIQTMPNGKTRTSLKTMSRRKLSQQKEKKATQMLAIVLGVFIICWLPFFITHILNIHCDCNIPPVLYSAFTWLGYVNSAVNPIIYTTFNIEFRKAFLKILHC
Sequence of D(1A) dopamine receptor (P21728 whole entry): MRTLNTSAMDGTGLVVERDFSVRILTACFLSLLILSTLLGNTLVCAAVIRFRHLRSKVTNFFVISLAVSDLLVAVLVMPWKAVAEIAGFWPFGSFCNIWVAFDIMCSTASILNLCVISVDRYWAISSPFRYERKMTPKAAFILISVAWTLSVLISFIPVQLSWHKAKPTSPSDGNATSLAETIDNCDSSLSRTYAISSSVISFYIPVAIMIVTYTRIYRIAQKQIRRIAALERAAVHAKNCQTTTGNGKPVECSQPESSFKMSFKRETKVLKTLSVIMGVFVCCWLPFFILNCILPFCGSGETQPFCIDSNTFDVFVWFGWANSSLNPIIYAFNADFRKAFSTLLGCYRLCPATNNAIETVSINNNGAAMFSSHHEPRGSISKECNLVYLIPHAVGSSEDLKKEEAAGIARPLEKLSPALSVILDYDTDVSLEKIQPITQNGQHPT
Sequence of Mu-type opioid receptor (P33535 whole entry): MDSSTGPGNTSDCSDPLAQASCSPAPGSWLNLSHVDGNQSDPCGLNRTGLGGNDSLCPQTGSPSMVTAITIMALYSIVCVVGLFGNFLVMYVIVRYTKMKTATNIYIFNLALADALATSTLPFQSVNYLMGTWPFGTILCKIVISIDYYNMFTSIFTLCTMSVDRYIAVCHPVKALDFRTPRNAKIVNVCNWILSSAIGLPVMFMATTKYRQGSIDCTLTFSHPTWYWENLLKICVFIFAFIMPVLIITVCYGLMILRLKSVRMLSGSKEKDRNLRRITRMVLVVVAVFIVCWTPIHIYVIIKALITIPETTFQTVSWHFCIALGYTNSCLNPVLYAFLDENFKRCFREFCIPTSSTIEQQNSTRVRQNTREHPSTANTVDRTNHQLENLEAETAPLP

One may read the Ki as a measure of affinity in units of concentration, obtained from inhibition or displacement. In the case of `COc1cc(COc2cc(N)c(Cl)cc2C(=O)CCC2CCN(CCNS(C)(=O)=O)CC2)cc(OC)c1` [CAS_167710-87-4], the Ki in assay [1] was 0.398 µM; on D(2) dopamine receptor, 1 µM; in assay [2], > 10 µM; at D(1A) dopamine receptor, 1 µM; in assay [3] it was 1 µM; in [4] it was 1 µM. In addition, the Ki is 0.794 µM in assay [5]; 1 µM in assay [6]; 1 µM in assay [7]; > 10 µM on B1 bradykinin receptor; 0.00079 µM in assay [8]; 1 µM at Mu-type opioid receptor.
